Experimental data published in patent US20070004660A1, “Synergistic Modulation of Flt3 Kinase Using Alkylquinolines and Alkylquinazolines” (priority 2005, published 2007).

Assays:
[1] = molecular target: T1, isolated kinase domain of the human FLT3 receptor (a.a. 571-993) (Homo sapiens, UniProt P36888); test: FLT3 fluorescence polarization kinase assay; assay type: biochemical; conditions: 150 uM ATP; uncertainty ±10%
T1 construct: human FLT3 receptor (a.a. 571-993)
T1 sequence (P36888 571-993): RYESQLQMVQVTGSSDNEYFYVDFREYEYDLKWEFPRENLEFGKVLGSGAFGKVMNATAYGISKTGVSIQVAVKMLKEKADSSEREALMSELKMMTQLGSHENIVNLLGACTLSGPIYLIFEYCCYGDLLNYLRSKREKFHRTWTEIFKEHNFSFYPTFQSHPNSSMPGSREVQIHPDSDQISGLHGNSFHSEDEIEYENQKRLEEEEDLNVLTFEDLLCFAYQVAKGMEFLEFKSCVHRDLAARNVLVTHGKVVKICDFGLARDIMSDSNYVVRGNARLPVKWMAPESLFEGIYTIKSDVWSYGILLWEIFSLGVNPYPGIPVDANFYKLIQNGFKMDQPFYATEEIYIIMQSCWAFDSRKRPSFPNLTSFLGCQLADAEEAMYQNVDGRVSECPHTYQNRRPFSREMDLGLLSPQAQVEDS

MV4-11 cells [2] = test: Inhibition of MV4-11 cell proliferation (CellTiterGlo, 72 h); assay type: cell-based; conditions: Homo sapiens; 72 h growth inhibition; uncertainty ±20%
[3] = tested on: patients with relapsed and refractory AML; conditions: cited from earlier work
MV-4-11 tumor xenografts = test: In vivo combination study, FLT3 inhibitor Compound B and Tipifarnib, MV-4-11 xenografts
Description: The effect of combination treatment of the FLT3 Inhibitor FLT3 inhibitors of Formula I′ and Tipifarnib (Zarnestra™) on the growth of MV-4-11 human AML tumor xenografts in nude mice was tested using FLT3 inhibitor Compound B. The in vivo study was designed to extend the in vitro observations to evaluate the potential for a synergistic anti-tumor effect of FLT3 inhibitor Compound B administered orally together with Tipifarnib to nude mice bearing established MV-4-11 tumor xenografts.

MV4-11 cells [4] = test: Annexin V staining (apoptosis) of MV4-11 cells; assay type: cell-based, human; conditions: Tipifarnib and FLT3 inhibitor Compound A, fixed ratio 4:1, 48 hours
Description: After the compound incubations, treated cells were harvested and stained with Annexin V-PE and 7-AAD using the Guava Nexin apoptosis kit according to the protocol in the Biological Activity Measurements section hereafter. Annexin V staining peaks at 60% because cells late in apoptosis begin to fall apart and are considered debris. […] Statistical analysis using the above described method of Chou and Talalay was also performed to determine the synergy of the combination. FIG. 11b depictes the isobolar analysis of the Tipifarnib and FLT3 inhibitor Compound A combination in inducing annexin V staining. […] The magnitude of the synergistic induction of apoptosis of MV4-11 cells by the combination of an FTI and a FLT3 inhibitor could not be predicted by those skilled in the art. […]
Annexin V Staining. To examine the apoptosis of the leukemic MV4-11 cell line, cells were treated with Tipifarnib and/or FLT3 inhibitor Compound A, and Annexin V binding to phosphotidylserine on the outer leaflet of the plasma membrane of apoptotic cells was monitored using the GuavaNexin assay reagent and the Guava personal flow cytometry system (Guava Technologies; Hayward, Calif.). […] All annexin positive cells were considered apoptotic and percent Annexin positive cells was calculated.

[5] = multicenter Phase II trial, relapsed AML

Compound `COCCOc1ccc(NC(=O)N2CCC(c3ncnc4cc(OC)c(OC)cc34)CC2)cc1` [Example 40, 4-(6,7-Dimethoxy-quinazolin-4-yl)-piperidine-1-carboxylic acid [4-(2-methoxy-ethoxy)-phenyl]-amide] has an IC50 [1] of 910 nM and an IC50 (MV4-11 cells [2]) of 2200 nM.

For `COc1cc2c(C3CCN(C(=O)Nc4ccc(N5CCOCC5)cc4)CC3)ncnc2cc1OCCCN1CCN(C)CC1` [Compound 207, 4-{6-Methoxy-7-[3-(4-methyl-piperazin-1-yl)-propoxy]-quinazolin-4-yl}-piperidine-1-carboxylic acid (4-morpholin-4-yl-phenyl)-amide], the IC50 [1] was 29 nM and the IC50 (MV4-11 cells [2]) was 48 nM.

For `CC(C)Oc1ccc(NC(=O)N2CCC(c3ncnc4cc(OCCCN5CCOCC5)ccc34)CC2)cc1` [Example 38], the IC50 [1] was 6 nM and the IC50 (MV4-11 cells [2]) was 16 nM.

In the case of `COc1cc2ncnc(C3CCN(C(=O)Cc4ccc(C(C)C)cc4)CC3)c2cc1OC` [Example 28, 1-[4-(6,7-Dimethoxy-quinazolin-4-yl)-piperidin-1-yl]-2-(4-isopropyl-phenyl)-ethanone], the IC50 [1] is reported as 8 nM and the IC50 (MV4-11 cells [2]) is reported as 15 nM.

Work on `COc1cc2c(C3CCN(C(=O)Nc4ccc(N5CCCC5)cc4)CC3)ncnc2cc1OCCN1CCCC1=O` [Compound 209, 4-{6-Methoxy-7-[2-(2-oxo-pyrrolidin-1-yl)-ethoxy]-quinazolin-4-yl}-piperidine-1-carboxylic acid (4-pyrrolidin-1-yl-phenyl)-amide] yielded an IC50 [1] of 17 nM and an IC50 (MV4-11 cells [2]) of 26 nM.

For `COc1cc2ncnc(C3CCN(C(=O)Nc4ccc(N(C)C)cc4)CC3)c2cc1OC` [Example 26, 4-(6,7-Dimethoxy-quinazolin-4-yl)-piperidine-1-carboxylic acid (4-dimethylamino-phenyl)-amide], the IC50 [1] was 200 nM and the IC50 (MV4-11 cells [2]) was 204 nM.

In the case of `O=C(Nc1ccc(N2CCCC2)cc1)N1CCC(c2ncnc3cc(N4CCOCC4)c(F)cc23)CC1` [Compound 210, 4-(6-Fluoro-7-morpholin-4-yl-quinazolin-4-yl)-piperidine-1-carboxylic acid (4-pyrrolidin-1-yl-phenyl)-amide], the IC50 [1] is reported as 21 nM and the IC50 (MV4-11 cells [2]) is reported as 102 nM.

For `CC(C)Oc1ccc(NC(=O)N2CCC(c3ncnc4cc(OCCCN5CCN(C)CC5)ccc34)CC2)cc1` [Example 39], the IC50 [1] was 15 nM and the IC50 (MV4-11 cells [2]) was 14 nM.

`COc1ccc2c(C3CCN(C(=O)Nc4ccc(C(C)C)cc4)CC3)ncnc2c1` [Example 32, 4-(7-Methoxy-quinazolin-4-yl)-piperidine-1-carboxylic acid (4-isopropyl-phenyl)-amide] gave an IC50 [1] of 11 nM and an IC50 (MV4-11 cells [2]) of 235 nM.

`CC(C)Oc1ccc(NC(=O)N2CCC(c3ncnc4cc(OCCN5CCCCC5)ccc34)CC2)cc1` [Example 34, 4-(7-(2-Piperindin-1-yl-ethoxy)-quinazolin-4-yl)-piperidine-1-carboxylic acid (4-isopropoxy-phenyl)-amide] showed an IC50 [1] of 49 nM and an IC50 (MV4-11 cells [2]) of 95 nM.

`O=C1CCCN1CCOc1cc2ncnc(C3CCN(C(=O)Nc4ccc(N5CCCC5)cc4)CC3)c2cc1F` [Compound 206, 4-{6-Fluoro-7-[2-(2-oxo-pyrrolidin-1-yl)-ethoxy]-quinazolin-4-yl}-piperidine-1-carboxylic acid (4-pyrrolidin-1-yl-phenyl)-amide] gave an IC50 [1] of 28 nM and an IC50 (MV4-11 cells [2]) of 61 nM.

With `CC(C)c1ccc(NC(=O)N2CCC(c3ncnc4cc(Cl)ccc34)CC2)cc1` [Example 30, 4-(7-Chloro-quinazolin-4-yl)-piperidine-1-carboxylic acid (4-isopropyl-phenyl)-amide] the IC50 [1] was 35 nM and the IC50 (MV4-11 cells [2]) was 380 nM.

In the case of `CC(C)Oc1ccc(NC(=O)N2CCC(c3ncnc4cc(Cl)ccc34)CC2)cc1` [Example 29, 4-(7-Chloro-quinazolin-4-yl)-piperidine-1-carboxylic acid (4-isopropoxy-phenyl)-amide], the IC50 [1] is reported as 150 nM and the IC50 (MV4-11 cells [2]) is reported as 315 nM.

`CC(C)Oc1ccc(NC(=O)N2CCC(c3ncnc4cc(OCCCN5CCCCC5)ccc34)CC2)cc1` [Example 33, 4-(7-(3-Piperidin-1-yl-propoxy)-quinazolin-4-yl)-piperidine-1-carboxylic acid (4-isopropoxy-phenyl)-amide] showed an IC50 [1] of 11 nM and an IC50 (MV4-11 cells [2]) of 50 nM.

With `COc1ccc2c(C3CCN(C(=O)Nc4ccc(OC(C)C)cc4)CC3)ncnc2c1` [Example 31, 4-(7-Methoxy-quinazolin-4-yl)-piperidine-1-carboxylic acid (4-isopropoxy-phenyl)-amide] the IC50 [1] was 21 nM and the IC50 (MV4-11 cells [2]) was 85 nM.

For `Cn1cncc1C(N)(c1ccc(Cl)cc1)c1ccc2c(c1)c(-c1cccc(Cl)c1)cc(=O)n2C` (single isomer, unassigned; (+)) [Tipifarnib, (+)-6-[amino(4-chlorophenyl)(1-methyl-1H-imidazol-5-yl)methyl]-4-(3-chlorophenyl)-1-methyl-2(1H)-quinolinone], the “>50% reduction in bone marrow blasts” value [3, 5] is given as 31 of 50, the “complete responses (bone marrow blasts <5%)” value [3, 5] is given as 17 of 50 and the response rate ([3]; patients with relapsed and refractory AML) is given as roughly 30%. For the same compound, the “effect on tumor volume compared to control” value (MV-4-11 tumor xenografts; 50 mg/kg po alone, Day 9) was “not significantly reduced”, the overt toxicity (MV-4-11 tumor xenografts; 9-day treatment, either agent alone or in combination) was “No overt toxicity” and the “shift of EC50 for induction of annexin V staining by the combination” value (MV4-11 cells [4]) was “more than eight-fold”.

`COc1cc2ncnc(C3CCN(C(=O)Nc4ccc(I)cc4)CC3)c2cc1OC` [Example 2, 4-(6,7-Dimethoxy-quinazolin-4-yl)-piperidine-1-carboxylic acid (4-iodo-phenyl)-amide] gave an IC50 [1] of 210 nM and an IC50 (MV4-11 cells [2]) of 752 nM.

`COc1cc2c(C3CCN(C(=O)Nc4ccc(N5CCCC5)cc4)CC3)ncnc2cc1N1CCOCC1` [Compound 211, 4-(6-Methoxy-7-morpholin-4-yl-quinazolin-4-yl)-piperidine-1-carboxylic acid (4-pyrrolidin-1-yl-phenyl)-amide] gave an IC50 [1] of 8 nM and an IC50 (MV4-11 cells [2]) of 20 nM.

In the case of `CCN(CC)CCCOc1ccc2c(C3CCN(C(=O)Nc4ccc(OC(C)C)cc4)CC3)ncnc2c1` [Example 36, 4-[7-(3-Diethylamino-propoxy)-quinazolin-4-yl)-piperidine-1-carboxylic acid (4-isopropoxy-phenyl)-amide], the IC50 [1] is reported as 18 nM and the IC50 (MV4-11 cells [2]) is reported as 42 nM.

`CCN(CC)CCOc1ccc2c(C3CCN(C(=O)Nc4ccc(OC(C)C)cc4)CC3)ncnc2c1` [Example 35, 4-[7-(2-Diethylamino-ethoxy)-quinazolin-4-yl)-piperidine-1-carboxylic acid (4-isopropoxy-phenyl)-amide] gave an IC50 [1] of 47 nM and an IC50 (MV4-11 cells [2]) of 95 nM.

In the case of `COc1cc2c(C3CCN(C(=O)Nc4ccc(N5CCOCC5)cc4)CC3)ncnc2cc1N1CCOCC1` [Compound 212, 4-(6-Methoxy-7-morpholin-4-yl-quinazolin-4-yl)-piperidine-1-carboxylic acid (4-morpholin-4-yl-phenyl)-amide], the IC50 [1] is reported as 239 nM and the IC50 (MV4-11 cells [2]) is reported as 367 nM.

Work on `COc1cc2ncnc(C3CCN(C(=O)Nc4ccc(-n5ccnc5)cc4)CC3)c2cc1OC` [Example 3, 4-(6,7-Dimethoxy-quinazolin-4-yl)-piperidine-1-carboxylic acid (4-imidazol-1-yl-phenyl)-amide] yielded an IC50 [1] of 3900 nM and an IC50 (MV4-11 cells [2]) of 636 nM.

`CC(C)Oc1ccc(NC(=O)N2CCC(c3ncnc4cc(OCCN5CCOCC5)ccc34)CC2)cc1` [Example 37] gave an IC50 [1] of 7 nM and an IC50 (MV4-11 cells [2]) of 165 nM.

Compound `COc1cc2ncnc(C3CCN(C(=O)Nc4ccc(NC(C)=O)cc4)CC3)c2cc1OC` [Example 25, 4-(6,7-Dimethoxy-quinazolin-4-yl)-piperidine-1-carboxylic acid (4-acetylamino-phenyl)-amide] has an IC50 [1] of 6100 nM and an IC50 (MV4-11 cells [2]) greater than 10000 nM.
